Results published in US20230201192A1, “METHODS AND MATERIALS FOR ASSESSING AND TREATING CANCER” (Mayo Foundation for Medical Education and Research, priority 2020, published 2023).

Legend:
[1] = system: endoplasmic reticulum (ER) stress induced proteins; assay: mRNA expression of ER stress induced proteins by qPCR; format: cell-based; conditions: sensitive cells, 1 μM SSI-4 for 48 hours, fold change to untreated cells
[2] = Cell proliferation / viability assay (CyQuant or Coulter count), SSI-4 dose response; format: cell-based; conditions: 72 h; responsive HCC, CCA, ccRCC and MM cell lines; dose response 0.01-10,000 nM, 3 day exposure
Description: (§1) Cells were seeded at 5,000 cells/well in clear-bottom 96-well plates in triplicate. Drug treatment was applied at 1:1000 in reduced serum conditions (3%). After 72 hours, cells were washed with PBS, and stored at −80° C. prior to analysis using CyQuant® Proliferation Analysis Kit (Invitrogen) per manufacturers' protocol for relative fluorescence units. Alternatively, cells were plated 2×10^5/ well in 12-well plates (Genesee Scientific) in triplicate prior to drug treatment. After 120-hour treatment, cell number was established using a Coulter Particle Counter (Beckman). Oleic acid-albumin (Sigma Aldrich) was added to media at 5 μM, and was applied adjuvant to drug treatment. Drug stocks were prepared in DMSO (Sigma) at 1000×. IC50 dosing per cell line was calculated as described elsewhere (von Roemeling et al., Oncotarget, 9:3-20 (2018)).
(§2) SCD1 expression was examined in cell lines. Cells were treated with 1 μM SSI-4 for 3 days and a viability assay was used to identify SSI-4 sensitive and insensitive cell lines. Certain cell lines were also treated with varied doses (0.01-10,000 nM) of SSI-4 for 3 days. Not all cells that express SCD1 are sensitive to a SCD1 inhibitor (FIG. 1 and FIG. 2).

[3] = system: hepatocellular carcinoma (HCC), cholangiocarcinoma (CCA), clear cell renal cell carcinoma (ccRCC) and melanoma (MM) cell lines; assay: as above; format: cell-based; conditions: responsive cell lines; 1 μM SSI-4 + 500 ug/ml BSA-OA, three days
Description: as §1, §2

[4] = system: Unsaturated fatty acids (UFAs); assay: Unsaturated fatty acids measured in media of cells; format: cell-based; conditions: SSI-4 sensitive cells, 1 μM SSI-4
[5] = system: PDX tumor models for RCC, HCC, melanoma and CCA; assay: PDTX tumor models in Nod Scid gamma mice; format: in vivo, NSG mice; conditions: oral, 180 parts per million in chow=10 mg/kg daily; treatment from ~75 mm^3; models predicted responsive by IHC
Description: Animal models and drug testing: PDTX tumors (5×5×5-mm) were implanted into Nod Scid gamma mice with treatment (vehicle control or oral SSI-4) begun when tumors were approximately ˜75-100 mm^3. Tumor volume, food consumption and body weight were monitored twice weekly. Tumor tissue was collected and processes for IHC.
In FIG. 10, PDTX tumor models for HCC, ccRCC, CCA, and melanoma respond to SSI-4 or not correlate with predictions shown in FIG. 10. PDTX tumors were grown in the right flank of Nod Scid Gamma (NSG) mice with treatment beginning when tumors reach ˜75 mm^3 with the start of SSI-4 oral treatment. Tumor tissues were formalin fixed and paraffin block slides were stained for SCD1, c-Myc, LDHA, p-Src by standard IHC protocols for protein expression. PDTX models tested include RCC, HCC, melanoma, and CCA. * indicates statistical difference of SSI-4 from same day treatment control (P<0.05). Number in red predicts no response to SSI-4 (SCD1 inhibitor). […] Cells resistant to SSI-4 may have low or no cMyc and no or low LDHA with elevated p-Src. Cell with elevated cMyc and LDHA and low p-Src are responsive to SSI-4 or SCD1 inhibition.

[6] = system: c-Myc silenced SSI-4 responsive cells / c-Myc overexpressing nonresponsive cells; assay: Cell viability after c-Myc silencing (shRNA) or c-Myc overexpression; format: cell-based
Description: c-Myc gene silencing (shRNA) and c-Myc over-expression: Lentivirus shRNA pLKO.1 constructs were used to make self-inactivating shRNA lentiviruses for human c-Myc and a nontarget random scrambled sequence control. Transfection reagents Lipofectamine 2000 and ViraPower were used to generate lentiviruses using HEK293FT viral progenitor cells. Cells were incubated with lentivirus plus […] polybrene for 24 hours before clonal selection with puromycin.
In FIG. 8, overexpression of c-Myc in nonresponsive SSI-4 cells convert cells to SSI-4 sensitive (growth inhibited) cells. c-Myc mRNA expression is ˜2-fold elevated in cells infected with a c-Myc expression plasmid (FIG. 8A).

[7] = system: SSI-4 sensitive HCC cells; assay: Soft agar colony formation; format: cell-based; conditions: 1 micromolar SSI-4
Description: Soft agar cultures were prepared by diluting 2× growth medium 1:1 in 1.5% SeaplaqueGTG agarose (Lonza), with 500 cells/plate in 60-mm culture dishes (Genesee Scientific). Colonies were stained with Giemsa (LabChem Inc.) and counted after 3 weeks.
In FIG. 3A, cells representative of HCC (top row), RCC (middle row) and MM (bottom row) are shown. In FIG. 3B, sensitive HCC cells are treated with 1 micromolar SSI-4 showing inhibition of colony formation (i.e. growth). In FIG. 3C, colonies are quantitated comparing control to SSI-4 treated cells. […] Each treatment group was repeated in triplicate. Colony number is the mean+/−standard deviation (S.D.). Thus, soft agar assay can independently predict response to SCD1 inhibitor but requires fresh live tumor tissue and laboratories such as the Copland laboratory that can access tissues, process tissues and perform the assays.

[8] = system: BIP, cleaved PARP, cleaved caspase 3, c-Myc, cyclin D1, survivin; assay: Western blot analysis of ER stress, apoptosis and c-Myc signaling; format: cell-based
Description: HCC, RCC, CCA, and MM cell lines (2000 cells/well) were incubated with DMSO control (1:1000), 500 ug/ml bovine serum albumin-oleic acid (BSA-OA) and/or 1 μM SSI-4 for three days and determined for cell viability (FIG. 4A). Nonresponsive cell lines are closed triangle and responsive are open triangles. […] Specificity for blockade of SCD1 is shown by rescue with the enzyme end product, oleic acid (OA).
Western blot analysis: Cell protein extracts were prepared using RIPA lysis buffer containing 50 mmol/L Tris, 5 mmol/L EDTA, 150 mmol/L NaCl, 0.1% SDS, 0.5% deoxycholate, 1% NP40, protease inhibitor cocktail, and phosphatase inhibitor. Tissue protein extracts were prepared from frozen samples using 1% SDS in 50 mmol/L pH 8.0 Tris buffer containing protease inhibitor cocktail and phosphatase inhibitor with brief sonication on ice. Electrophoresis, transfer, blocking, and antibody preparations were performed. The following primary antibodies were included: SCD1, c-Myc, pSrc Y418, Src, b-actin, PARP, cleaved caspase 3, survivin, cyclin D1. Secondary species-specific horseradish peroxidase-labeled antibodies were applied, and Supersignal Chemiluminescent Kit was used to perform detection.
In FIG. 6, c-Myc protein expression correlates with SCD1 sensitive cell lines. SCD1 protein is expressed in most cancer cells (HCC and ccRCC) while c-Myc protein expression appears to be expressed in SSI-4 sensitive cells.

With `CNC(=O)c1ccnc(NC(=O)N2CCC(Oc3ccccc3Cl)CC2)c1` [SSI-4, 2-{[4-(2-Chlorophenoxy)piperidine-1-carbonyl]amino}-N-methylpyridine-4-carboxamide] the “mRNA expression for ER stress induced proteins” value [1] was “became elevated”, the IC50 [2] was 1 to 40 nM and the “rescue of SSI-4 inhibition of cell proliferation by oleic acid (BSA-OA)” value [3] was “complete rescue”. For the same molecule, the “unsaturated fatty acids (UFAs)” value [4] was “suppressed UFAs to levels equal to non-responsive cells”, the “tumor response (tumor volume)” value [5] was “respond” and the “sensitivity of cells silenced for c-Myc to SSI-4 treatment” value ([6]; SSI-4 responsive cells with c-Myc shRNA) was “become insensitive”. For the same molecule, the inhibition at 1 µM ([6]; c-Myc expressing (previously nonresponsive) cells, 1 uM SSI-4, read-out: enhanced growth inhibition) was 33 to 45%, the “colony formation on soft agar” value [7] was “blocked colony formation” and the “c-Myc and c-Myc regulated genes (cyclin D1 and survivin) protein expression” value ([8]; 1 μM SSI-4, restored by oleic acid BSA) was “down-regulated”. For the same molecule, the “ER stress (BIP protein, Western)” value ([8]; HCC cell lines) was “upregulation of BIP protein”, the “apoptosis (cleaved PARP and cleaved caspase 3, Western)” value ([8]; HCC cell lines) was “Apoptotic cell death is induced” and the “cMyc protein (Western)” value ([8]; HCC cell lines, rescue by OA) was “down-regulates cMyc protein”.
